Assay results published in PubChem BioAssay (NCI).
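Step 1: Grow cells in 96-well plates. Step 2: Expose to compound for 48 hours at 5 concentrations. Step 3: Interpolate endpoints linearly; if unreached, use highest concentration. GI50: concentration for 50% inhibition of growth. The concentration for full growth arrest is given as TGI.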

Assays:
Assay in all cases: NCI-60 cell line screen, 48 h
HCT-15 colon = system: HCT-15 colon
MOLT-4 leukemia = system: MOLT-4 leukemia
CCRF-CEM leukemia = system: CCRF-CEM leukemia
HOP-92 NSCLC = system: HOP-92 NSCLC
NCI-H522 lung = system: NCI-H522 lung
SF-539 CNS = system: SF-539 CNS
HT29 colon = system: HT29 colon
A549 NSCLC = system: A549 NSCLC
SNB-75 CNS = system: SNB-75 CNS
SNB-19 CNS = system: SNB-19 CNS
HCC-2998 colon = system: HCC-2998 colon
HS 578T breast = system: HS 578T breast
IGROV1 ovarian = system: IGROV1 ovarian
PC-3 prostate = system: PC-3 prostate
NCI-H23 lung = system: NCI-H23 lung
TK-10 renal = system: TK-10 renal
SF-295 CNS = system: SF-295 CNS
NCI-H226 lung = system: NCI-H226 lung
MDA-MB-231 breast = system: MDA-MB-231 breast
SK-MEL-28 melanoma = system: SK-MEL-28 melanoma
CAKI-1 renal = system: CAKI-1 renal
K-562 leukemia = system: K-562 leukemia
COLO 205 colon = system: COLO 205 colon
RXF 393 renal = system: RXF 393 renal
DU-145 prostate = system: DU-145 prostate
OVCAR-3 ovarian = system: OVCAR-3 ovarian
SN12C renal = system: SN12C renal
OVCAR-8 ovarian = system: OVCAR-8 ovarian
SK-MEL-5 melanoma = system: SK-MEL-5 melanoma
SW-620 colon = system: SW-620 colon
OVCAR-4 ovarian = system: OVCAR-4 ovarian
MDA-MB-468 breast = system: MDA-MB-468 breast
KM12 colon = system: KM12 colon
MALME-3M melanoma = system: MALME-3M melanoma
HCT-116 colon = system: HCT-116 colon
786-0 renal = system: 786-0 renal
MDA-MB-435 = system: MDA-MB-435
ACHN renal = system: ACHN renal
U251 CNS = system: U251 CNS
MCF7 breast = system: MCF7 breast
M14 melanoma = system: M14 melanoma
BT-549 breast = system: BT-549 breast
RPMI-8226 leukemia = system: RPMI-8226 leukemia
SK-OV-3 ovarian = system: SK-OV-3 ovarian
A498 renal = system: A498 renal
UACC-257 melanoma = system: UACC-257 melanoma
SK-MEL-2 melanoma = system: SK-MEL-2 melanoma
HOP-62 NSCLC = system: HOP-62 NSCLC
OVCAR-5 ovarian = system: OVCAR-5 ovarian
SR leukemia = system: SR leukemia
LOX IMVI melanoma = system: LOX IMVI melanoma
HL-60(TB) leukemia = system: HL-60(TB) leukemia
UO-31 renal = system: UO-31 renal
UACC-62 melanoma = system: UACC-62 melanoma
EKVX NSCLC = system: EKVX NSCLC
SF-268 CNS = system: SF-268 CNS
T-47D breast = system: T-47D breast
NCI-H460 lung = system: NCI-H460 lung

**Q.** `Nc1n[nH]c2cccc(C#Cc3cccc(NC(=O)Nc4cc(C(F)(F)F)cc(C(F)(F)F)c4)c3)c12` was tested. Which GI50 (HCT-15 colon) did it give?
**A.** 2.48 µM

**Q.** And the TGI (HCT-15 colon)?
**A.** 10.1 µM

**Q.** And the GI50 (MOLT-4 leukemia)?
**A.** 2.77 µM

**Q.** What about the TGI (MOLT-4 leukemia) of the same molecule?
**A.** 10.2 µM

**Q.** What about the GI50 (CCRF-CEM leukemia) of the same molecule?
**A.** 3.27 µM

**Q.** What about the TGI (CCRF-CEM leukemia) of the same molecule?
**A.** 14.2 µM

**Q.** What about the GI50 (HOP-92 NSCLC) of the same molecule?
**A.** 1.9 µM

**Q.** And the TGI (HOP-92 NSCLC)?
**A.** 5.12 µM

**Q.** And the GI50 (NCI-H522 lung)?
**A.** 2.37 µM

**Q.** And the TGI (NCI-H522 lung)?
**A.** 7.01 µM

**Q.** What about the GI50 (SF-539 CNS) of the same molecule?
**A.** 1.52 µM

**Q.** And the TGI (SF-539 CNS)?
**A.** 4.28 µM

**Q.** What about the GI50 (HT29 colon) of the same molecule?
**A.** 1.67 µM

**Q.** What about the TGI (HT29 colon) of the same molecule?
**A.** 3.26 µM

**Q.** What about the GI50 (A549 NSCLC) of the same molecule?
**A.** 2.59 µM

**Q.** What about the TGI (A549 NSCLC) of the same molecule?
**A.** 11.3 µM

**Q.** And the GI50 (SNB-75 CNS)?
**A.** 0.287 µM

**Q.** And the TGI (SNB-75 CNS)?
**A.** 10.6 µM

**Q.** What about the GI50 (SNB-19 CNS) of the same molecule?
**A.** 7.62 µM

**Q.** And the TGI (SNB-19 CNS)?
**A.** 21.2 µM

**Q.** And the GI50 (HCC-2998 colon)?
**A.** 2.31 µM

**Q.** What about the TGI (HCC-2998 colon) of the same molecule?
**A.** 5.07 µM

**Q.** What about the GI50 (HS 578T breast) of the same molecule?
**A.** 1.97 µM

**Q.** And the TGI (HS 578T breast)?
**A.** 7.7 µM

**Q.** And the GI50 (IGROV1 ovarian)?
**A.** 2.66 µM

**Q.** And the TGI (IGROV1 ovarian)?
**A.** 7.78 µM

**Q.** What about the GI50 (PC-3 prostate) of the same molecule?
**A.** 2.23 µM

**Q.** And the TGI (PC-3 prostate)?
**A.** 6.96 µM

**Q.** And the GI50 (NCI-H23 lung)?
**A.** 2.16 µM

**Q.** What about the TGI (NCI-H23 lung) of the same molecule?
**A.** 5.44 µM

**Q.** What about the GI50 (TK-10 renal) of the same molecule?
**A.** 4.2 µM

**Q.** What about the TGI (TK-10 renal) of the same molecule?
**A.** 12.9 µM

**Q.** And the GI50 (SF-295 CNS)?
**A.** 2.32 µM

**Q.** What about the TGI (SF-295 CNS) of the same molecule?
**A.** 6.83 µM

**Q.** What about the GI50 (NCI-H226 lung) of the same molecule?
**A.** 2.82 µM

**Q.** And the TGI (NCI-H226 lung)?
**A.** 9.34 µM

**Q.** What about the GI50 (MDA-MB-231 breast) of the same molecule?
**A.** 1.06 µM

**Q.** And the TGI (MDA-MB-231 breast)?
**A.** 2.45 µM

**Q.** What about the GI50 (SK-MEL-28 melanoma) of the same molecule?
**A.** 2.76 µM

**Q.** What about the TGI (SK-MEL-28 melanoma) of the same molecule?
**A.** 8.6 µM

**Q.** And the GI50 (CAKI-1 renal)?
**A.** 2.36 µM

**Q.** And the TGI (CAKI-1 renal)?
**A.** 11.5 µM

**Q.** And the GI50 (K-562 leukemia)?
**A.** 2.72 µM

**Q.** What about the TGI (K-562 leukemia) of the same molecule?
**A.** > 100 µM

**Q.** And the GI50 (COLO 205 colon)?
**A.** 1.88 µM

**Q.** And the TGI (COLO 205 colon)?
**A.** 4 µM

**Q.** What about the GI50 (RXF 393 renal) of the same molecule?
**A.** 2.55 µM

**Q.** What about the TGI (RXF 393 renal) of the same molecule?
**A.** 6.69 µM

**Q.** What about the GI50 (DU-145 prostate) of the same molecule?
**A.** 3.5 µM

**Q.** What about the TGI (DU-145 prostate) of the same molecule?
**A.** 12.5 µM

**Q.** And the GI50 (OVCAR-3 ovarian)?
**A.** 2.67 µM

**Q.** What about the TGI (OVCAR-3 ovarian) of the same molecule?
**A.** 8.06 µM

**Q.** And the GI50 (SN12C renal)?
**A.** 1.52 µM

**Q.** And the TGI (SN12C renal)?
**A.** 3.31 µM

**Q.** And the GI50 (OVCAR-8 ovarian)?
**A.** 2.93 µM

**Q.** And the TGI (OVCAR-8 ovarian)?
**A.** 10 µM

**Q.** And the GI50 (SK-MEL-5 melanoma)?
**A.** 1.88 µM

**Q.** What about the TGI (SK-MEL-5 melanoma) of the same molecule?
**A.** 3.69 µM

**Q.** And the GI50 (SW-620 colon)?
**A.** 1.96 µM

**Q.** And the TGI (SW-620 colon)?
**A.** 3.8 µM

**Q.** And the GI50 (OVCAR-4 ovarian)?
**A.** 2.6 µM

**Q.** And the TGI (OVCAR-4 ovarian)?
**A.** 8.39 µM

**Q.** And the GI50 (MDA-MB-468 breast)?
**A.** 2.22 µM

**Q.** What about the TGI (MDA-MB-468 breast) of the same molecule?
**A.** 6 µM

**Q.** What about the GI50 (KM12 colon) of the same molecule?
**A.** 1.85 µM

**Q.** And the TGI (KM12 colon)?
**A.** 4.1 µM

**Q.** And the GI50 (MALME-3M melanoma)?
**A.** 1.6 µM

**Q.** And the TGI (MALME-3M melanoma)?
**A.** 4.24 µM

**Q.** What about the GI50 (HCT-116 colon) of the same molecule?
**A.** 2.07 µM

**Q.** And the TGI (HCT-116 colon)?
**A.** 5.64 µM

**Q.** What about the GI50 (786-0 renal) of the same molecule?
**A.** 2.16 µM

**Q.** And the TGI (786-0 renal)?
**A.** 4.78 µM

**Q.** What about the GI50 (MDA-MB-435) of the same molecule?
**A.** 1.92 µM

**Q.** And the TGI (MDA-MB-435)?
**A.** 4.18 µM

**Q.** What about the GI50 (ACHN renal) of the same molecule?
**A.** 2.71 µM

**Q.** And the TGI (ACHN renal)?
**A.** 9.39 µM

**Q.** And the GI50 (U251 CNS)?
**A.** 2.3 µM

**Q.** What about the TGI (U251 CNS) of the same molecule?
**A.** 6.22 µM

**Q.** What about the GI50 (MCF7 breast) of the same molecule?
**A.** 2.52 µM

**Q.** What about the TGI (MCF7 breast) of the same molecule?
**A.** 7.36 µM

**Q.** And the GI50 (M14 melanoma)?
**A.** 2.02 µM

**Q.** What about the TGI (M14 melanoma) of the same molecule?
**A.** 4.55 µM

**Q.** And the GI50 (BT-549 breast)?
**A.** 1.97 µM

**Q.** What about the TGI (BT-549 breast) of the same molecule?
**A.** 5.3 µM

**Q.** What about the GI50 (RPMI-8226 leukemia) of the same molecule?
**A.** 2.63 µM

**Q.** What about the TGI (RPMI-8226 leukemia) of the same molecule?
**A.** 9.16 µM

**Q.** And the GI50 (SK-OV-3 ovarian)?
**A.** 3.87 µM

**Q.** What about the TGI (SK-OV-3 ovarian) of the same molecule?
**A.** 12.3 µM

**Q.** And the GI50 (A498 renal)?
**A.** 3.84 µM

**Q.** What about the TGI (A498 renal) of the same molecule?
**A.** 10.4 µM

**Q.** And the GI50 (UACC-257 melanoma)?
**A.** 2.59 µM

**Q.** What about the TGI (UACC-257 melanoma) of the same molecule?
**A.** 8.44 µM

**Q.** And the GI50 (SK-MEL-2 melanoma)?
**A.** 1.62 µM

**Q.** What about the TGI (SK-MEL-2 melanoma) of the same molecule?
**A.** 3.34 µM

**Q.** And the GI50 (HOP-62 NSCLC)?
**A.** 1.93 µM

**Q.** What about the TGI (HOP-62 NSCLC) of the same molecule?
**A.** 4.25 µM

**Q.** What about the GI50 (OVCAR-5 ovarian) of the same molecule?
**A.** 2.2 µM

**Q.** And the TGI (OVCAR-5 ovarian)?
**A.** 10.4 µM

**Q.** And the GI50 (SR leukemia)?
**A.** 2.58 µM

**Q.** What about the TGI (SR leukemia) of the same molecule?
**A.** 15.3 µM

**Q.** And the GI50 (LOX IMVI melanoma)?
**A.** 1.6 µM

**Q.** And the TGI (LOX IMVI melanoma)?
**A.** 2.94 µM

**Q.** What about the GI50 (HL-60(TB) leukemia) of the same molecule?
**A.** 1.81 µM

**Q.** What about the TGI (HL-60(TB) leukemia) of the same molecule?
**A.** 7.04 µM

**Q.** And the GI50 (UO-31 renal)?
**A.** 3.11 µM

**Q.** And the TGI (UO-31 renal)?
**A.** 10.3 µM

**Q.** And the GI50 (UACC-62 melanoma)?
**A.** 2.11 µM

**Q.** And the TGI (UACC-62 melanoma)?
**A.** 4.9 µM

**Q.** What about the GI50 (EKVX NSCLC) of the same molecule?
**A.** 2.71 µM

**Q.** And the TGI (EKVX NSCLC)?
**A.** 8.02 µM

**Q.** What about the GI50 (SF-268 CNS) of the same molecule?
**A.** 3.2 µM

**Q.** And the TGI (SF-268 CNS)?
**A.** 14 µM

**Q.** What about the GI50 (T-47D breast) of the same molecule?
**A.** 2.73 µM

**Q.** And the TGI (T-47D breast)?
**A.** 11 µM

**Q.** What about the GI50 (NCI-H460 lung) of the same molecule?
**A.** 2.04 µM

**Q.** What about the TGI (NCI-H460 lung) of the same molecule?
**A.** 5.14 µM
